Assay results as given in article PMC4841940 (Molecular cell, 2016).
Entries after “also recorded” stand apart in the source; their conditions may differ.

Key:
[1] = target: second bromodomain of BRD3 (UniProt Q15059); test: ITC
[2] = system: RAW264.7 cells, AF9KO + F59A; test: qRT-PCR, AF9 KO with F59A addback; format: cell-based, mouse; details: crotonate pre-treatment before LPS
[3] = system: FLAG-AF9 (WT) recruitment in RAW264.7 cells; test: FLAG-ChIP-qPCR, FLAG-AF9; format: cell-based, mouse; details: increasing concentrations of crotonate, then LPS; Rsad2, Il6, Ifit1, Cmpk2, Gbp2
[4] = system: RAW264.7 cells (parental); test: qRT-PCR of crotonate-responsive genes, parental cells; format: cell-based, mouse; details: crotonate pre-treatment before LPS
[5] = system: FLAG-AF9 (F59A) recruitment in RAW264.7 cells; test: FLAG-ChIP-qPCR, FLAG-AF9; format: cell-based, mouse; details: increasing concentrations of crotonate, then LPS; Rsad2, Il6, Ifit1, Cmpk2, Gbp2
[6] = system: AF9 recruitment to genes in RAW264.7 cells; test: FLAG-AF9 ChIP-seq in RAW264.7 cells; format: cell-based, mouse; details: 10mM crotonate pre-treatment then LPS
[7] = system: RAW264.7 cells, AF9KO + WT; test: qRT-PCR, AF9 KO with wild type AF9 addback; format: cell-based, mouse; details: crotonate pre-treatment before LPS
[8] = system: histone crotonylation (H3K18cr) / crotonyl-CoA; details: ref Sabari et al., 2015, cited from earlier work
[9] = system: RAW264.7 cells, AF9 KO; test: qRT-PCR of crotonate-responsive genes, AF9 knockout; format: cell-based, mouse; details: crotonate pre-treatment before LPS
[10] = target: AF9 YEATS domain, wild type (UniProt P42568); test: ITC
Chain of UniProt P42568 (P42568 1-138): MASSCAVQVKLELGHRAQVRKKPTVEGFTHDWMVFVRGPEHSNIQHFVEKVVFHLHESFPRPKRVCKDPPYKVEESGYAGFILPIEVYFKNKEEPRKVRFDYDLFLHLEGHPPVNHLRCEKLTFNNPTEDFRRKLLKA

Chain of UniProt Q15059 (Q15059 307-416): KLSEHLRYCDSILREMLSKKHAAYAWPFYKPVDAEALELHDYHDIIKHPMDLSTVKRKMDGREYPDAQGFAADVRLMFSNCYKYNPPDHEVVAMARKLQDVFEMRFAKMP

## H3K18pr peptide (acylation series of Figure 4C)
[1]
  fold reduced affinity against H3K18ac: 4 fold

## H3K18bu peptide (acylation series of Figure 4C)
[1]
  fold reduced affinity against H3K18ac: 38 fold

## C/C=C/C(=O)O [crotonate]
[2]
  rescue of crotonate response, AF9 (F59A) addback: not mutant AF9 (F59A) rescued this reduction
[3]
  AF9 (WT) ChIP-qPCR signal: AF9 signal increases with increasing concentrations of crotonate
[4]
  expression of Ccl3 (non-responsive gene): unaffected by crotonate pre-treatment
[5]
  AF9 (F59A) ChIP-qPCR signal, crotonate: the F59A mutant is unresponsive
[6]; metagene analysis
  FLAG-AF9 ChIP-seq signal: FLAG-AF9 signal was higher with crotonate treatment only for crotonate responsive genes
[6]; ± 1kb TSS, 233 genes
  mean fold-change in FLAG-AF9 RPKM, crotonate unresponsive genes: 0.92 fold
[7]
  rescue of crotonate response, wild type AF9 addback: addback of wild type AF9 but not mutant AF9 (F59A) rescued this reduction
[8]; cellular concentrations
  effect on crotonyl-CoA and acetyl-CoA: selectively increases cellular concentrations of crotonyl-CoA, the high-energy donor of crotonyl, while leaving acetyl-CoA, the high-energy donor of acetyl, unaffected
[8]
  effect on Kcr vs Kac: specifically enhances Kcr, and does not significantly affect Kac
[9]
  crotonate response in AF9 KO cells: significantly reduced response; also recorded: significantly reduced the crotonate response in our model system, but did not abolish it completely

## histone H3_(1–15)K9ac peptide (from UniProt P68431 2-16)
[10]
  Kd: 5 µM

## histone H3_(1–15)K9su peptide (from UniProt P68431 2-16)
[10]
  Kd: 500 µM
